“And” between values parts separate entries of the source, which are not always exact repeats. Identical values can stand only once.
How the values were obtained:
seHAS = assay: Effect of sulfhydryl reagents on seHAS activity in E. coli membranes; assay type: biochemical, Streptococcus equisimilis; settings: E. coli membranes with seHAS-H6, 4° C. 1 h, 5 mM NEM, 5 mM IAA, 0.5 mM 5,5′-dithiobis-(2-nitrobenzoic acid), 0.05 mM methylmethanethiosulfonate, 10 mM sodium arsenite
Method: (§1) SeHAS is the smallest HAS protein (417 amino acids) and contains four Cys residues. […] To explore the possible role of cysteines in the function of HAS, the activities of seHAS and spHAS were assayed in the presence of different sulfhydryl reagents (Table II). […] The inhibition of each HAS by NEM was examined in more detail with respect to time of incubation and NEM concentration (FIG. 2).
(§2) E. coli SURE cells transformed with plasmids containing various seHAS mutants were grown in LB medium with vigorous shaking at 32° C. to A600 ˜0.8 and induced with 1 mM isopropyl-β-thiogalactoside for 3 h. Cells were harvested and membranes were prepared as described previously. The kinetic constants for HAS were determined at 37° C. in 100 μl of 50 mM sodium and potassium phosphate, pH 7.0, with 20 mM MgCl2, 1 mM DTE, 240 μM UDP-GIcUA, 0.7 μM UDP-[^14C]GIcUA and 0.6–1.0 mM UDP-GIcNAc. in 100 μl of 25 mM sodium and potassium phosphate, pH 7, containing 50 mM NaCl, 20 mM MgCl2, 1 mM dithiothreitol, 1 mM UDP-GIcUA, 0.68 μM UDP-GIcUA and 1 mM UDP-GIcNAc. Some assays also contained 0.1 mM EDTA and 20% glycerol (v/v). To initiate the enzyme reaction, ˜0.5–40 μg of membrane protein was added and the mixtures were gently shaken in a MicroMixer X-36 (Tiatec) at 30° C. for 1–2 h. Reactions were terminated by the addition of SDS to a final concentration of 2% (w/v). The incorporation of radioactive [^14C]GIcUA was determined by descending paper chromatography and the Km and Vmax values were determined as described by Tlapak-Simmons et al (1999b). Data were analyzed by the methods of Michaelis-Menton or Hill. Protein content was determined by the method of Bradford using bovine serum albumin as the standard. All Cys-mutant or sulfhydryl-treated seHAS samples were assayed in duplicate or triplicate using two or three independent membrane preparations. […] All enzyme assays were performed under conditions that were linear with respect to time and protein concentration.
(§3) Stock solutions (10–100 mM) of NEM, IAA or other sulfhydryl reagents were made in PBS, pH 7.0. Suspensions of membranes containing seHAS or spHAS were incubated with 0–5 mM of the sulfhydryl reagent at 4° C. and the reactions were stopped by adding DTE to a final concentration of 10 mM. The membranes were then assayed for HAS activity as described above.

spHAS = molecular target: T1, spHAS (Streptococcus pyogenes serotype M6, UniProt Q5X9A9); assay: Effect of sulfhydryl reagents on spHAS activity in E. coli membranes; assay type: biochemical; settings: E. coli membranes with spHAS-H6, 4° C. 1 h, 5 mM NEM, 5 mM IAA, 0.5 mM 5,5′-dithiobis-(2-nitrobenzoic acid), 0.05 mM methylmethanethiosulfonate, 10 mM sodium arsenite
T1 construct: made in house; host or cells: E. coli SURE cells (isolated membranes)
T1 sequence (Q5X9A9 1-419): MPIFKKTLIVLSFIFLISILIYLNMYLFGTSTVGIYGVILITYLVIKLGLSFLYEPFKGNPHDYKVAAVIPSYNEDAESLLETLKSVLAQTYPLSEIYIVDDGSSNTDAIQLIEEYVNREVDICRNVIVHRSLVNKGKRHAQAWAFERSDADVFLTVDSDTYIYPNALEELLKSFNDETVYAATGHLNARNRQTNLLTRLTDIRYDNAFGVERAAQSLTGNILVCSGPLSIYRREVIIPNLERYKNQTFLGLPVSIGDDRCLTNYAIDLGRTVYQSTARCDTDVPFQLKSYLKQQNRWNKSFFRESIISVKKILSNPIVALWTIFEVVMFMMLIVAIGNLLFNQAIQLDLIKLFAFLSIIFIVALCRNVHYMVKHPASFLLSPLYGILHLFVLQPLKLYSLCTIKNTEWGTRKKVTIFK
Method: as §1, §2, §3

SMILES: CCN1C(=O)C=CC1=O [N-ethylmaleimide]
- Inhibition of HAS Activity (% relative to control), seHAS (seHAS): 70 ± 4.8%
- Inhibition of HAS Activity (% relative to control), seHAS (seHAS; listed as NEM): ~70% and 60–70%
- Inhibition of HAS Activity (% relative to control), spHAS (spHAS): 60 ± 3.5%
- Inhibition of HAS Activity (% relative to control), spHAS (spHAS; listed as NEM): 60–70%

From patent publication US7094581B2, “Hyaluronan synthases and methods of making and using same” (The Board of Regents of the University of Oklahoma, priority 1998, dated 2006)
